The text below walks through data of the OPERA property sets (Mansouri et al. 2018).

Where a SMILES comes first, the peptide text is derived from it.

In the case of `Cc1cc2c(o1)c(C)cc1c(C)cc(=O)n(C)c12`, the logP (in general, the decadic logarithm of the partition coefficient of the neutral form, usually between octanol and water) is 3.43.

Consider `O=Cc1ccc2ccc3cccc4ccc1c2c34`, for which the logP was 4.23.

For the molecule `C=C(C)C(=O)OCCCCCCCC(C)C`, the logP amounted to 5.28.

For `CC(C)OC(=O)CC(C(=O)OC(C)C)S(=O)(=O)c1ccc([N+](=O)[O-])cc1` (stereo not given), the lipophilicity (logP) is 2.18.

Consider `Cc1ccc(OC(=O)CNC(=O)c2ccccc2)c(C)c1`, for which the log partition coefficient (logP) amounted to 3.4.

In turn, `COc1cc2ncnc(Nc3cccc(I)c3)c2cc1OC` displayed a log partition coefficient (logP) of 3.65.

Turning to `CCCOc1cccc(NC(=O)OCCN2CCCCC2)c1`, the logP is 4.48.

`O=c1cc(CBr)oc(Br)c1O`: the logP is 1.27.

On to `CCC(C)C(N)C(=O)NC(CO)C(=O)NC(C(=O)O)C(C)CC` (stereo not drawn) (H-Ile-Ser-Ile-OH; configuration not given here), for which the logP was -2.64.

The molecule `CCN(CC)CCSC(=NO)c1nc(Cc2ccccc2)no1` returned a logP of 2.55.

For the molecule `COC(=O)C(C)=CC1C(C(=O)OCc2cccc(C#N)c2)C1(C)C` (stereo not given), the logP came out at 3.83.

Regarding `CCCCOc1cccc2nc(N)nc(N)c12`, the lipophilicity (logP) turned out to be 2.81.

In turn, `NC(=O)c1[nH]cc(-c2ccc(Cl)cc2)c1N1CCOCC1` gave a log partition coefficient (logP) of 2.4.

With `CCCCCCCCNC(=O)N1C(=O)N(C)CC1O` (stereo not given), the logP turned out to be 3.46.

Regarding `CN(C)C(=O)Nc1cccc(OCc2ccc(Cl)cc2Cl)c1`, the lipophilicity (logP) came out at 4.1.

Consider `CC(C)(C)[N+]([O-])=Cc1ccc([N+](=O)[O-])cc1`, for which the logP was determined as 1.4.

In the case of `Cc1nc2c3c(c(C(N)=O)cn2c1C)CCC(c1ccccc1)O3` (stereo not given), the log partition coefficient (logP) worked out at 3.5.

`CCN(CC)CC(=O)NCC(=O)Nc1c(C)cccc1C`: the lipophilicity (logP) is 2.2.

With `CC(C)C(NC(=O)C(N)Cc1ccccc1)C(=O)NCC(=O)O` (stereo not drawn) (H-Phe-Val-Gly-OH; configuration not given here), the logP was -2.33.

`COc1ccc(C2CC(=O)N(CCN(C)C)c3cccc(C(F)(F)F)c3C2)cc1` (stereo not given) had a logP of 5.1.

Turning to `C#CCN(N=O)C(=O)NCCCC(NC(C)=O)C(=O)NCc1ccccc1` (stereo not given), the logP is 1.12.

In turn, `CCCCOCCCNc1[nH]cnc2ncnc1-2` had a log partition coefficient (logP) of 2.22.

In turn, `N=C1C=CC(=C(c2ccc(N)cc2)c2ccc(N)cc2)C=C1` registered a log partition coefficient (logP) of -0.21.

Turning to `CCn1ccnc1CC1COc2ccccc2O1` (stereo not given), the log partition coefficient (logP) was found to be 2.31.

`CN1CC(O)N(C(=O)NCCCl)C1=O` (stereo not given) came in with a logP of 0.71.

Molecule `CCCC(=NOCC)C1=C(O)CC2(CC(C)CC(C)C2)OC1=O` (stereo not given) returned a log partition coefficient (logP) of 4.47.

Molecule `NC(Cc1ccccc1)C(=O)NCC(=O)NCC(=O)NC(Cc1ccccc1)C(=O)O` (stereo not given) (H-FGGF-OH; configuration not given here) came in with a logP of -1.51.

As to `CCOC(=O)c1c(O)c2ccc(Cl)cc2[nH]c1=O`, the logP turned out to be 2.6.

The molecule `CC(C)CC(N)C(=O)NC(C)C(=O)NC(CC(C)C)C(=O)O` (stereo not drawn) (H-Leu-Ala-Leu-OH; configuration not given here) gave a logP of -2.03.

`CCCCCCCCCCCCN=C=S`: the log partition coefficient (logP) amounted to 7.13.

Turning to `CCCNC(=O)Cn1cccc(O)c1=O`, the logP was -0.24.

Consider `O=S(=O)(NC(=S)N1CCCCC1)c1cnccc1NC1CCCCCCC1`, for which the logP turned out to be 4.5.

As to `CCCN(CCC)C1CCc2c(OC)cccc2C1C` (stereo not given), the logP turned out to be 4.76.

`Cc1cc2c(o1)c(C)cc1c(C)cc(=O)oc12` had a logP of 3.28.

On to `COc1ccc(C2Cc3c(OC)cccc3N(CCN(C)C)C(=O)C2OC(C)=O)cc1` (stereo not given), for which the lipophilicity (logP) amounted to 3.9.

`O=C(NO)NN=Cc1cccc(C(F)(F)F)c1` registered a lipophilicity (logP) of 1.64.

Consider `CCC(C)C(NC(=O)C(CC(C)C)NC(=O)C(N)C(C)O)C(=O)O` (stereo not drawn) (H-Thr-Leu-Ile-OH; configuration not given here), for which the log partition coefficient (logP) is -1.66.

`O=c1cc(-c2ccccc2)oc2c(Cl)cc(Cl)cc12` registered a lipophilicity (logP) of 4.76.

`COc1ccc(C2Cc3c(C(=O)OCc4ccccc4)cccc3N(CCN(C)C)C(=O)C2OC(C)=O)cc1` (stereo not given) registered a lipophilicity (logP) of 5.3.

For `Cn1c2c(c3cc(Cl)ccc31)CCNC2`, the logP was 2.3.

For `CCN(CC)CCCC(C)NC(=O)c1ccc([N+](=O)[O-])cc1[N+](=O)[O-]` (stereo not given), the log partition coefficient (logP) was 1.73.

As to `O=C(OC1Cc2c(O)cc(O)cc2OC1c1ccc(O)c(O)c1)c1ccc(O)c(O)c1` (stereo not given), the lipophilicity (logP) came out at 2.45.

`CCN(CC)CC(=O)Nc1ccccc1` yielded a logP of 2.49. This logP and that of the molecule before are within 0.2 log units of each other.

The molecule `CCCCC(=O)C(CCCCOc1c(C)cc(C)cc1[N+](=O)[O-])n1cncn1` (stereo not given) returned a lipophilicity (logP) of 3.9.

Consider `CCCCNC(=N)NC(=O)c1ccc(Cl)cc1`, for which the log partition coefficient (logP) is 3.08.

In the case of `OCCNc1ncnc2nc[nH]c12`, the logP is -0.18.

With `CC1(C)SC2C(NC(=O)C(c3ccccc3)S(=O)(=O)O)C(=O)N2C1C(=O)O` (stereo not given), the logP is -0.22.

On to `CN(C)CC(c1ccccc1)c1ccccc1`, for which the lipophilicity (logP) was determined as 3.58.

As to `O=[N+]([O-])c1nccn1COCC=CCO`, the logP is -0.28.

`NC(Cc1ccccc1)C(=O)NC(Cc1ccccc1)C(=O)O` (stereo not drawn) (H-Phe-Phe-OH; configuration not given here) displayed a logP of -0.85.

`CC(=O)OCC1OC(n2cc(F)c(=O)[nH]c2=O)C(OC(C)=O)C1OC(C)=O` (stereo not given) yielded a logP of -0.25.

The molecule `CCCCCCN=C=S` showed a logP of 3.98.

On to `CCN(CC)CC(=O)Nc1ccc(N)cc1`, for which the logP is 1.09.

Molecule `CC1(C)CCC(C(F)(F)F)=[N+]1[O-]` returned a log partition coefficient (logP) of 0.2.

Regarding `CCCCCCCCOC(=O)c1cccnc1`, the logP was 4.71.

For the molecule `C=C1CC2c3c(O)cc(CCCCC)cc3OC(C)(C)C2CC1O` (stereo not given), the log partition coefficient (logP) is 5.24.

On to `Nc1nc(N)c2c(Br)cccc2n1`, for which the lipophilicity (logP) was determined as 1.91.

For the molecule `Clc1c(Br)cccc1N=C1NCCN1`, the lipophilicity (logP) was 1.82.

For the molecule `Cc1cccc(C=[N+]([O-])C(C)(C)C)c1`, the logP came out at 1.6.

`CCOP(=O)(OCC)C(C)(C)[N+]([O-])=Cc1ccncc1` showed a logP of 0.32.

Turning to `CCCc1nc(NC(C)C)nc(N2CCOCC2)n1`, the logP came out at 2.26.

`COc1ccc(CCNCC(O)COc2ccc(-c3nc(C)c(C)[nH]3)cc2)cc1OC` (stereo not given) showed a log partition coefficient (logP) of 3.22.

`OCCCCCNc1[nH]cnc2ncnc1-2` yielded a logP of 0.72.

The molecule `COc1ccc(CCNCC(O)COc2ccc(Cc3nc(C)c[nH]3)cc2)cc1OC` (stereo not given) returned a logP of 2.5.

For the molecule `N#Cc1cccc(Cn2cnc3ccccc32)c1`, the lipophilicity (logP) worked out at 2.47.

The molecule `Cc1[nH]cnc1CSCCNC1=C([N+](=O)[O-])CCN1` had a logP of -0.87.

The molecule `c1ccc2c(c1)OCCOCCOc1ccccc1OCCO2` gave a lipophilicity (logP) of 2.21.

In turn, `CCOP(=O)(OCC)C(Cl)(Cl)P(=O)(OCC)OCC` came in with a logP of 1.31.

On to `Cc1ccccc1N1CCN(CC2CN=C(N)O2)CC1` (stereo not given), for which the log partition coefficient (logP) came to 1.78.

For the molecule `Cc1nc2ccccc2c(=O)n1CC(=O)NCc1ccccc1`, the logP was found to be 1.78.

Regarding `NC(=O)c1cccc(Cn2ccnc2)c1`, the logP was -0.01.

`Cc1sc2cc3oc(=O)cc(C)c3cc2c1C` returned a lipophilicity (logP) of 3.48.

`COc1cc2c(cc1OC)C(C=Cc1ccccc1)=NCC2` returned a logP of 3.39.

On to `O=c1cc(CSc2nc3ccccc3[nH]2)occ1O`, for which the logP worked out at 1.51.

Consider `Cc1cn(C2C=CC(COP3(=O)OCc4cc([N+](=O)[O-])ccc4O3)O2)c(=O)[nH]c1=O` (stereo not given), for which the log partition coefficient (logP) was determined as 0.18.

Regarding `c1nc2nc[nH]c(N3CCC3)c-2n1`, the log partition coefficient (logP) was found to be 0.87.

As for `CCN(CC)CCNC(=O)c1c(C)cc(N)cc1C`, the lipophilicity (logP) was 0.98.

Regarding `C#CCCCCl`, the logP was 1.85.

The molecule `CCC(C)c1cnc(CC(C)C)c(=O)n1O` (stereo not given) yielded a lipophilicity (logP) of 1.81.

With `O=c1cc(-c2cccc(Cl)c2)oc2ccccc12`, the logP turned out to be 3.91.

`CC1CCC2OC2(C)C12CCC(C(C)(C)O)C2` (stereo not given): the logP came to 2.7.

`Cc1cc2c(o1)c(C)c(C)c1ccc(=O)oc12` displayed a logP of 3.26.

In turn, `Cc1cccc(Nc2ccncc2S(=O)(=O)NC(=O)NC(C)C)c1` had a logP of 3.37.

`CCN(CC)NC(=O)NS(=O)(=O)c1ccc(C)cc1` came in with a logP of 0.47.

The molecule `CC(C)NC(=O)Cn1cccc(O)c1=O` yielded a logP of -0.34.

In turn, `Cc1ccccc1-n1nnnc1N` showed a log partition coefficient (logP) of 0.93.

Molecule `Clc1cc(-c2ccc(Cl)c(Cl)c2Cl)cc(Cl)c1Cl` had a log partition coefficient (logP) of 7.6.

Molecule `NC(Cc1ccc(Cl)cc1)C(=O)O` (stereo not given) came in with a logP of -0.47.

For `O=c1cc(CBr)occ1O`, the logP amounted to 0.61.

Take `CCCc1nc(N2CCOCC2)nc(N(C)C(=O)c2ccccc2)n1`: the logP is 2.01.

With `CCOc1ccc(C(=O)OCCCn2ccc(=O)c(O)c2C)cc1`, the logP is 1.79.

Take `CC(C)=CCNc1ncnc2nc[nH]c12`: the logP was 2.2.

Molecule `COC(=O)Cc1ccc(O)cc1` came in with a logP of 1.63.

As for `OCCCCCCCNc1[nH]cnc2ncnc1-2`, the logP is 1.73.

As to `CCN(CC)C(=O)COC(=O)c1cc(S(N)(=O)=O)c(Cl)cc1NCc1ccco1`, the logP is 2.45.

As for `CC1=CC(=C2C(=O)c3ccccc3C2=O)C=C(C)N1CCCNC(=O)N(CCCl)N=O`, the logP is 2.84.

Consider `CCCc1cccc(CNc2[nH]cnc3ncnc2-3)c1`, for which the logP was determined as 3.53.

`Nc1nc(N)c2c(F)cccc2n1` displayed a logP of 1.19.

On to `Cc1oc2cc(C)c3ccc(=O)oc3c2c1C`, for which the logP turned out to be 3.36.

In turn, `CC(C)C1(C)N=C(c2ncc(Br)cc2C(=O)O)NC1=O` (stereo not given) yielded a lipophilicity (logP) of 1.19.

`CC(C)C[C@H](NC(=O)[C@@H](NC(=O)[C@@H](N)CC(C)C)C(C)C)C(=O)O` (H-Leu-Val-Leu-OH) yielded a logP of -1.57.

Turning to `CNC1=NS(=O)N=C1NCCSCc1ccc(CN(C)C)o1` (stereo not given), the logP stood at 0.89.

The molecule `Cc1c(C)c2ccc3occc3c2oc1=O` yielded a logP of 2.9.

Regarding `CCNC(=O)NS(=O)(=O)c1cnccc1NC1CCCCCCC1`, the logP turned out to be 3.57.

`Nc1n[n+]([O-])c2ccccc2[n+]1[O-]` yielded a logP of -0.3.

In the case of `CN(C)CCOc1ccc(Cl)cc1`, the log partition coefficient (logP) was found to be 3.05.

Molecule `CC(C)(CO)N=O` had a lipophilicity (logP) of -0.52.

Turning to `O=C(c1ccccn1)n1c(=O)[nH]cc(F)c1=O`, the lipophilicity (logP) was -0.06.

Turning to `C[C@]12CCC(=O)C=C1[C@@H]1C[C@@H]1[C@@H]1[C@@H]2CC[C@@]2(C)[C@H]1CC[C@@]21CCC(=O)O1`, the logP turned out to be 3.08.

`COc1coc(CCl)cc1=O` came in with a logP of 0.16.
